US20040147527A1, “Methods of use of gemifloxacin compounds against fluoroquinolone resistant Streptococcus pneumoniae bacteria” (priority 1999, published 2004)
In brackets after ≈: the same amount, converted by molar mass.

Key:
[1] = tested on: S. pneumoniae with reduced susceptibility to CIP; test: MIC by NCCLS microbroth dilution, 80 clinical isolates with CIP MIC ≧2 μg/ml; format: cell-based; conditions: Streptococcus pneumoniae
Method: Topoisomerase IV (parC) and DNA gyrase (gyrA) mutations were confirmed by sequencing the QRDR region of each gene. Serotyping and PFGE were performed on all isolates. […] Breakpoints have not been established for all fluoroquinolones, thus percentage resistance was not calculated.

[2] = tested on: S. pneumoniae (CFX and TFX susceptible and resistant clinical isolates); test: Postantibiotic effect (PAE), viable colony counting technique; format: cell-based, Streptococcus pneumoniae
Method: This invention was based, in part, on analyses evaluating the comparative activity of gemifloxacin against various strains of S. pneumoniae. An objective of these analyses was to determine the postantibiotic effect (herein “PAE”) of GFX in CFX and TFX susceptible and resistant S. pneumoniae.
CFX resistant clinical isolates of S. pneumoniae were collected from across Canada. MICs were determined using a microbroth dilution technique described by the NCCLS. Topisomerase IV (parC) and DNA gyrase (gyrA) mutations were confirmed by sequencing the QRDR region of each gene. Two fluoroquinolone susceptible and 8 resistant isolates (3 CFX resistant. 5 CFX, TFX resistant) were selected for study. […] Antibiotics were removed using dilution into sterile media and the PAE assessed using a viable colony counting technique.

Row | MIC [1] [µg/mL] | MIC50 [1] [µg/mL] | MIC90 [1] [µg/mL] | Compound | mean PAE ([2]; GFX, 4× MIC for 2 hours) [h] | mean PAE ([2]; GFX, 10× MIC for 2 hours) [h] | difference in duration of PAE between CFX or TFX susceptible and resistant strains ([2]; p<0.05) | mean PAE ([2]; TFX susceptible isolates, 4× MIC for 2 hours) [h] | mean PAE ([2]; TFX susceptible isolates, 10× MIC for 2 hours) [h]
1 | 0.03 to 5 (≈ 0.077 to 12.8 µM) | 0.06 (≈ 0.154 µM) | 0.25 (≈ 0.642 µM) | CO/N=C1\CN(c2nc3c(cc2F)c(=O)c(C(=O)O)cn3C2CC2)CC1CN (racemic) [GFX, (R,S)-7-(3-aminomethyl-4-methoxyiminopyrrolidin-1-yl)-1-cyclopropyl-6-fluoro-4-oxo-1,4-dihydro-1,8-naphthyridine-3-carboxylic acid] | 2.7 | 3.8 | no significant difference |  | 
2 | 0.25 to 8 (≈ 0.666 to 21.3 µM) | 0.5 (≈ 1.33 µM) | 4 (≈ 10.7 µM) | COc1c(N2CCNC(C)C2)c(F)cc2c(=O)c(C(=O)O)cn(C3CC3)c12 (centres unmarked) [GAT, gatifloxacin] |  |  |  |  | 
3 | 0.12 to 8 (≈ 0.334 to 22.3 µM) | 0.5 (≈ 1.39 µM) | 8 (≈ 22.3 µM) | Cc1c(F)c(N2CCNC(C)C2)cc2c1c(=O)c(C(=O)O)cn2C1CC1 (centres unmarked) [GRE, grepafloxacin] |  |  |  |  | 
4 | 1 to 32 (≈ 2.77 to 88.6 µM) | 2 (≈ 5.53 µM) | 16 (≈ 44.3 µM) | C[C@H]1COc2c(N3CCN(C)CC3)c(F)cc3c(=O)c(C(=O)O)cn1c23 [LEV, levofloxacin] |  |  |  |  | 
5 | 0.12 to 4 (≈ 0.299 to 9.96 µM) | 0.25 (≈ 0.623 µM) | 2 (≈ 4.98 µM) | COc1c(N2C[C@@H]3CCCN[C@@H]3C2)c(F)cc2c(=O)c(C(=O)O)cn(C3CC3)c12 [MOX, moxifloxacin] |  |  |  |  | 
6 | 0.25 to 32 (≈ 0.637 to 81.5 µM) | 0.5 (≈ 1.27 µM) | 16 (≈ 40.8 µM) | C[C@@H]1CN(c2c(F)c(N)c3c(=O)c(C(=O)O)cn(C4CC4)c3c2F)C[C@H](C)N1 [SPA, sparfloxacin] |  |  |  |  | 
7 | 0.06 to 8 (≈ 0.144 to 19.2 µM) | 0.5 (≈ 1.2 µM) | 4 (≈ 9.61 µM) | N[C@@H]1[C@H]2CN(c3nc4c(cc3F)c(=O)c(C(=O)O)cn4-c3ccc(F)cc3F)C[C@@H]12 [TFX, trovafloxacin] |  |  |  | 2.1 | 3.2
